Data taken from patent US12240844B2 (Voronoi, Inc., priority 2019, dated 2025).

Legend:
[1] = system: TNF-α; experiment: TNF-α secretion inhibition in LPS-treated THP-1 cells (ELISA); assay type: cell-based; conditions: Homo sapiens, compound 0.5 μM, LPS 500 ng/ml, 24 hours, read-out: THP-1/TNF-a (% inhib)
Method in brief: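 Human monocytic THP-1 cells were pre-cultured 16 h at 37° C., then treated with compound at 0.5 μM final, followed by LPS at 500 ng/ml final. After 24 h, IL-6 and TNF-α in culture supernatant were quantified by ELISA with absorbance read at 450 nm.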

[2] = system: THP-1; experiment: THP-1 GI50 (Table 4, method not given); assay type: cell-based; conditions: Homo sapiens; THP-1 cells
[3] = biological target: T1, LRRK2, LRRK2 (G2019S), DYRK1, CLK1 and TTK kinases (Homo sapiens, UniProt Q5S007); experiment: Enzyme IC50 by Kinase HotSpot service (Reaction Biology Corporation), values marked with *; assay type: biochemical; conditions: LRRK2, ATP 10 uM
T1 construct: LRRK2 IC50 (marked with *); other: LRRK2; Kinase HotSpot service (Reaction Biology), ATP 10 uM
T1 sequence (Q5S007 whole entry G2019S): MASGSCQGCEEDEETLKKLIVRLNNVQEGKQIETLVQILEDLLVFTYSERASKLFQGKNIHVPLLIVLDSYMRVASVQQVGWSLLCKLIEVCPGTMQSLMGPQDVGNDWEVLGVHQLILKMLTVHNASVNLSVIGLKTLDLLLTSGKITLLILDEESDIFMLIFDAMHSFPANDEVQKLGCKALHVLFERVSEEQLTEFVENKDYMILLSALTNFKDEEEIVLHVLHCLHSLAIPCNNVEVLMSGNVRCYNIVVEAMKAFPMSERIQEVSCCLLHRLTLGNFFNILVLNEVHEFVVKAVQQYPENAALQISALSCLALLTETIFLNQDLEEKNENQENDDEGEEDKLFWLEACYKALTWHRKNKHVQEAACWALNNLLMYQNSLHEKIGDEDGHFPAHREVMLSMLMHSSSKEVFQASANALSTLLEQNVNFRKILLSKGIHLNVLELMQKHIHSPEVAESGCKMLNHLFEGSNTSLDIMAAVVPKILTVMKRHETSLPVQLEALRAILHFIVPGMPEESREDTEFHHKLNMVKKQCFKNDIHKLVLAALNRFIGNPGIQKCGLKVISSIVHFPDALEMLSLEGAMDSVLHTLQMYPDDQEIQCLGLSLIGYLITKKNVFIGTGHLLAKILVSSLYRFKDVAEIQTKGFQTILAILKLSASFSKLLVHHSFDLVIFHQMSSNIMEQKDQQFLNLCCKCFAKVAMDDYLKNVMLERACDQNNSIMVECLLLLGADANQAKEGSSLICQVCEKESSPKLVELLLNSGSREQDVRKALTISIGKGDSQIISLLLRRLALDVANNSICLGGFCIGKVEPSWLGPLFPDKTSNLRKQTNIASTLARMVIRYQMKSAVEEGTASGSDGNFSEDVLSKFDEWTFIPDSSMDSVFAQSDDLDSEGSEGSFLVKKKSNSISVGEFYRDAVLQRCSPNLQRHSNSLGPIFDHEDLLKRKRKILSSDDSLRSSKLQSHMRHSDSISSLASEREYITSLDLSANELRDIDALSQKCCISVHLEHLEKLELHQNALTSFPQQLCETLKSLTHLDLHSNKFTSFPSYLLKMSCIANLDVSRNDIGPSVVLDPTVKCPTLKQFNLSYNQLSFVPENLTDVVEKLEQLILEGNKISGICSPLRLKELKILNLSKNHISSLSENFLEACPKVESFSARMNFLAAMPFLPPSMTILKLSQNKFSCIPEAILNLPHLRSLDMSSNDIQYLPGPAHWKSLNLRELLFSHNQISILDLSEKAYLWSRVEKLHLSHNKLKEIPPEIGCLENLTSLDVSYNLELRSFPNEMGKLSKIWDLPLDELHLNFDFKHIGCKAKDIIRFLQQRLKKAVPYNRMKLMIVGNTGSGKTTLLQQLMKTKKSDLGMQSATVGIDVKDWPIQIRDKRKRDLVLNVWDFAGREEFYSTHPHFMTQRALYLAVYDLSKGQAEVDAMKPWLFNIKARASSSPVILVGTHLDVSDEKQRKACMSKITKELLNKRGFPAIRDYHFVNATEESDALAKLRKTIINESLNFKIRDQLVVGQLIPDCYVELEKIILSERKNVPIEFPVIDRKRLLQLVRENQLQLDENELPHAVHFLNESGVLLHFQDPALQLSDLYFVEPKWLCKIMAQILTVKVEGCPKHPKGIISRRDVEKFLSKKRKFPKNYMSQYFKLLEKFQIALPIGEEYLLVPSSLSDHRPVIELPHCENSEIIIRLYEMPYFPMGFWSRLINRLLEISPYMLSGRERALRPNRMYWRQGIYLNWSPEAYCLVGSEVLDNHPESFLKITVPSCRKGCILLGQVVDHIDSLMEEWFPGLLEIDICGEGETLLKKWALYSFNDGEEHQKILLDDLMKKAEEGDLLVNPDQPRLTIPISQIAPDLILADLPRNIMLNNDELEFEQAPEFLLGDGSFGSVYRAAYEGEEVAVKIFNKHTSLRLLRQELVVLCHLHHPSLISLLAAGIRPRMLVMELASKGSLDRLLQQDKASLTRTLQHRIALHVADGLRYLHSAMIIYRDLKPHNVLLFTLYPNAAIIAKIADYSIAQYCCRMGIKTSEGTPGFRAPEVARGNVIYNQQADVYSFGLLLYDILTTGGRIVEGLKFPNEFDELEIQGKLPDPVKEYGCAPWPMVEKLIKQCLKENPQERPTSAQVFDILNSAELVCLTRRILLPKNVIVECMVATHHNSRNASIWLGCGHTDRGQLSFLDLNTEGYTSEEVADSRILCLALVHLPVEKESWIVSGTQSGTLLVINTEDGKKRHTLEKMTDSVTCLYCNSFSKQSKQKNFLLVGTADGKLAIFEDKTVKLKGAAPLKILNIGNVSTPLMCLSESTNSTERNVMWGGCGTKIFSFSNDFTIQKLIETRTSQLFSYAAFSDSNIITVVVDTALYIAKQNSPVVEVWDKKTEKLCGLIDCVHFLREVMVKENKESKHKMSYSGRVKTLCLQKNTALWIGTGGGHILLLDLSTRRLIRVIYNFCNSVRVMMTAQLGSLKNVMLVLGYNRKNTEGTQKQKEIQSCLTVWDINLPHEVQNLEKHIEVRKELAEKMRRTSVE
Method in brief: (§1)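 Radiometric-service kinase assays (Reaction Biology HotSpot protocol) run at 10 uM ATP under uniform conditions. Compounds tested as 3-fold dilution series from a top concentration of […] to give IC50.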

[4] = biological target: T2, LRRK2, LRRK2 (G2019S), DYRK1, CLK1 and TTK kinases (Homo sapiens, UniProt P49759); experiment: as above; assay type: biochemical; conditions: CLK1, ATP 10 uM
T2 construct: CLK1 IC50 (marked with *); other: CLK1; Kinase HotSpot service (Reaction Biology), ATP 10 uM
T2 sequence (P49759 whole entry, stated change not applied): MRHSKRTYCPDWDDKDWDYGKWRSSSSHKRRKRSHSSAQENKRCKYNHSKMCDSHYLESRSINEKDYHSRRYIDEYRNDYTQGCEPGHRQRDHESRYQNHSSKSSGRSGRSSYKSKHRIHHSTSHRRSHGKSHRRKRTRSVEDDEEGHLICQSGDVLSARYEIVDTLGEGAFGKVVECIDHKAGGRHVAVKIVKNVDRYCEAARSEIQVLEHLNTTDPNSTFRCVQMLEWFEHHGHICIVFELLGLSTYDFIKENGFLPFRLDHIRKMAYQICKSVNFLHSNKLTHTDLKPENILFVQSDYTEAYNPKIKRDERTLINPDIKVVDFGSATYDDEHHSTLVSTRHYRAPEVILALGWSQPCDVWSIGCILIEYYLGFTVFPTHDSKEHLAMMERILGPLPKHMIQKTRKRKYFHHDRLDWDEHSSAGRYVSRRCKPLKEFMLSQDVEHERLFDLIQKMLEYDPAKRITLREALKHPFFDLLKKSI
Method in brief: as §1

[5] = system: human DYRK1A and Tau; experiment: Tau phosphorylation inhibition, ClariCELL Kinase Cell-Based Assay (Carnabio)
Method in brief: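 HEK293 cells transiently expressing human DYRK1A and Tau were exposed to compound, then lysed. Released Tau was captured on plate and its phosphorylation quantified by ELISA with a phospho-Tau-specific antibody.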

SMILES	GI50 [2]	IC50 [3]	IC50 [4]	inhibition at 0.5 µM [1]	inhibition at 0.25 µM [5]	inhibition at 0.5 µM [5]	inhibition at 1 µM [5]
COCCNc1cc(Nc2ccc(P3(=O)CCN(C4CC4)CC3)cc2OC)nc2[nH]cc(C(F)(F)F)c12 [Example 207, 1-cyclopropyl-4-(3-methoxy-4-((4-((2-methoxyethyl)amino)-3-(trifluoromethyl)-1H-pyrrolo[2,3-b]pyridin-6-yl)amino)phenyl)-1,4-azaphosphinane 4-oxide]	9.39 µM	–	–	39.8%	–	–	–
O=C(c1ccc(Nc2cc(C3CC3)c3c(C(F)(F)F)c[nH]c3n2)c2c1CCO2)N1CC[C@@H](N2CCOCC2)C1 [Example 238, (R)-(7-((4-cyclopropyl-3-(trifluoromethyl)-1H-pyrrolo[2,3-b]pyridin-6-yl)amino)-2,3-dihydrobenzofuran-4-yl)(3-morpholinopyrrolidin-1-yl)methanone]	–	0.101 to 0.3 µM	< 0.1 µM	–	9.8%	26.4%	48.3%
CNc1cc(Nc2ccc(S(=O)(=O)N3CCC(N4CCOCC4)CC3)cc2OC)nc2[nH]cc(C(F)(F)F)c12 [Example 184, N^6-(2-methoxy-4-((4-morpholinopiperidin-1-yl)sulfonyl)phenyl)-N^4-methyl-3-(trifluoromethyl)-1H-pyrrolo[2,3-b]pyridine-4,6-diamine]	–	< 0.1 µM	< 0.1 µM	–	28.5%	58.2%	76.1%
O=C(c1ccc(Nc2cc(C3CC3)c3c(C(F)(F)F)c[nH]c3n2)c2c1CCO2)N1CC[C@H](N2CCOCC2)C1 [Example 237, (S)-(7-((4-cyclopropyl-3-(trifluoromethyl)-1H-pyrrolo[2,3-b]pyridin-6-yl)amino)-2,3-dihydrobenzofuran-4-yl)(3-morpholinopyrrolidin-1-yl)methanone]	–	0.101 to 0.3 µM	< 0.1 µM	–	7.7%	20.5%	34.5%
CCNc1cc(Nc2ccc(P3(=O)CCN(C(C)=O)CC3)cc2OC)nc2[nH]cc(C(F)(F)F)c12 [Example 42, 1-(4-(4-((4-(ethylamino)-3-(trifluoromethyl)-1H-pyrrolo[2,3-b]pyridin-6-yl)amino)-3-methoxyphenyl)-4-oxido-1,4-azaphosphinan-1-yl)ethan-1-one]	16.3 µM	–	–	35.7%	–	–	–

Now from value to compound, other results behind:

GI50 [2]	IC50 [3]	IC50 [4]	SMILES	inhibition at 0.5 µM [1]	inhibition at 0.25 µM [5]	inhibition at 0.5 µM [5]	inhibition at 1 µM [5]
146 µM	–	–	CCNc1cc(Nc2ccc(C(=O)N3C[C@@H]4C[C@H]3CO4)c3c2OCCO3)nc2[nH]cc(C(F)(F)F)c12 [Example 44, ((1S,4S)-2-oxa-5-azabicyclo[2.2.1]heptan-5-yl)(8-((4-(ethylamino)-3-(trifluoromethyl)-1H-pyrrolo[2,3-b]pyridin-6-yl)amino)-2,3-dihydrobenzo[b] [1,4]dioxin-5-yl)methanone]	100%	–	–	–
14.4 µM	–	–	CCNc1cc(Nc2ccc(C(=O)N3CCC(N4CCOCC4)CC3)c3c2OCO3)nc2[nH]cc(C(F)(F)F)c12 [Example 37, (7-((4-(ethylamino)-3-(trifluoromethyl)-1H-pyrrolo[2,3-b]pyridin-6-yl)amino)benzo[d][1,3]dioxol-4-yl)(4-morpholinopiperidin-1-yl)methanone]	100%	–	–	–
